In paper PMC13439108, “An antibody–drug conjugate active against antibiotic-resistant Neisseria gonorrhoeae” (Proceedings of the National Academy of Sciences of the …, 2026):
In brackets after ≈: the same amount, converted by molar mass. Like-named read-outs stand apart in the source and are kept apart here. Where a SMILES comes first, the peptide text is derived from it. [ ]: non-standard residue; d: D form. The star is where a group is joined. d(aIle) = CC[C@H](C)[C@@H](N)C(=O)O; dDab = NCC[C@@H](N)C(=O)O; Octanoyl = CCCCCCCC(=O)*; Dab = NCC[C@H](N)C(=O)O; AEEA = NCCOCCOCC(=O)O

Legend:
HK-2 cells [1] = experiment: MTT cell viability; format: cell-based, human; settings: n = 3; for MTT (EC50) 4 h: MTT reduction OD570, 4 h
Method: HK-2 cells (CRL-2190™, Americab Type Culutre Collection (ATCC)), a proximal renal tubule cell(7), and End1/E6E7 (CRL-2615™, ATCC) upper cervical epithelial cells(8) were cultured in Keratinocyte Serum Free Medium (Invitrogen, Life Technologies Ltd.) with human recombinant EGF (5 ng ml-1) and bovine pituitary extract (0.05 mg ml−1) at 37°C in 5% CO2. […]
Cell viability was assessed by 3-(4,5-dimethylthiazol-2-yl)-2,5-diphenyl-2H-tetrazolium bromide (MTT) assay(9); 200 µl fresh cell media and 250 µg of MTT was added to cells. Plates were Incubated at 37 °C, 5% CO2 for 3 hr then 200 µl of DMSO was added to wells with 25 µl glycine buffer (0.1 M glycine, 0.1 M NaCl pH 10.5) and shaken at 1000 r.p.m. for 10 min. Absorbance was read at OD570 nm. Cell viability was calculated as (sample absorbance – cell free blank/media control absorbance) x100.

[2] = test system: N. gonorrhoeae G97687 (MDR isolate); settings: G97687, MDR isolate resistant to ESCs and azithromycin, microdilution in FB, 24 hr, 37°C, 5% CO2
Method: (§1) Determination of Oct-TriA1 Minimum Inhibitory Concentration (MIC)
(§2) N. gonorrhoeae was resuspended in PBS to an ODA600 1.0, and ̴5 × 10^4 CFU added to wells of a microdilution plate containing dilutions of antimicrobials in FB. Plates were incubated for 24 hr at […]
(§3) 37°C, in 5% CO2 then 10 μl aliquots plated onto GCB agar. The MIC was defined as the lowest concentration of an antimicrobial that prevented bacterial growth. […]
(§4) Peptide concentration in ADC preparations
(§5) Peptide concentrations for ADCs were calculated from the antibody concentration, the drug-to-antibody ratio (DAR), and the peptide molecular weight using the following formula:
(§6) Conc. peptide (µg/mL) = Conc. ADC (µg/mL) × DAR x MWpeptide (Da) […]
(§7) Where Conc. ADC is the ADC/ mAb concentration, MWADC is the mAb molecular weight (150 kDa), MWpeptide is the peptide molecular weight and DAR is the average number of peptides per conjugate.
(§8) This formula was used to convert ADC concentrations to peptide concentrations for all assays. […]

N. gonorrhoeae WHO M = settings: microdilution in FB, ~5 × 10^4 CFU, 24 hr, 37°C, 5% CO2
Method: (§9) columns (ThermoFisher scientific). Activated mAb was added to 0.9 mg of Oct-TriA1 analogues (synthesised by ISCA Biochemicals, UK) and incubated at room temperature for 60 min. ADCs were dialysed using slide-A-Lyzer cassette (20K MWCO, ThermoFisher scientific) into PBS overnight at 4 °C […]
(§10) MALDI-TOF MS analysis for determination of intact mass mAbs or ADCs with a concentration of 1 mg/mL were acidified with 1% trifluoroacetic acid and mixed with Super DHB matrix, 1 μl was spotted onto an MTP Anchorchip 600/384. For every mAb, three sample spots were prepared from the same solution using three protocols advised by the manufacturer. MALDI-TOF measurements were performed on a Microflex LRF mass spectrometer, equipped with a 60Hz nitrogen laser at 337nm. Number of peptides conjugated was calculated using the MALDI-TOF molecular weights (MW) [MW = M+] of each ADC, the unconjugated antibody (mAb), and the molecular weights of Oct-TriA1 analogues using the following equation.
(§11) Number of peptides = MW ADC − MW mAb […]
as §1, §2, §3, §4, §5, §6, §7, §8

[3] = test system: N. gonorrhoeae FA1090ΔmtrE; settings: microdilution in FB, ~5 × 10^4 CFU, 24 hr, 37°C, 5% CO2
Method: as §9, §10, §11, §1, §2, §3, §4, §5, §6, §7, §8

N. gonorrhoeae WHO P = settings: microdilution in FB, ~5 × 10^4 CFU, 24 hr, 37°C, 5% CO2
Method: as §9, §10, §11, §1, §2, §3, §4, §5, §6, §7, §8

N. gonorrhoeae WHO L = settings: microdilution in FB, ~5 × 10^4 CFU, 24 hr, 37°C, 5% CO2
Method: as §9, §10, §11, §1, §2, §3, §4, §5, §6, §7, §8

[4] = test system: N. gonorrhoeae FA1090ΔIgAP; settings: microdilution in FB, ~5 × 10^4 CFU, 24 hr, 37°C, 5% CO2
Method: as §9, §10, §11, §1, §2, §3, §4, §5, §6, §7, §8

N. gonorrhoeae WHO K = settings: microdilution in FB, ~5 × 10^4 CFU, 24 hr, 37°C, 5% CO2
Method: as §9, §10, §11, §1, §2, §3, §4, §5, §6, §7, §8

N. gonorrhoeae WHO G = settings: microdilution in FB, ~5 × 10^4 CFU, 24 hr, 37°C, 5% CO2
Method: as §9, §10, §11, §1, §2, §3, §4, §5, §6, §7, §8

N. gonorrhoeae WHO F = settings: microdilution in FB, ~5 × 10^4 CFU, 24 hr, 37°C, 5% CO2, lowest concentration preventing growth
Method: as §9, §10, §11, §1, §2, §3, §4, §5, §6, §7, §8

N. gonorrhoeae MS11 = settings: microdilution in FB, ~5 × 10^4 CFU, 24 hr, 37°C, 5% CO2
Method: as §9, §10, §11, §1, §2, §3, §4, §5, §6, §7, §8

N. gonorrhoeae WHO O = settings: microdilution in FB, ~5 × 10^4 CFU, 24 hr, 37°C, 5% CO2
Method: as §9, §10, §11, §1, §2, §3, §4, §5, §6, §7, §8

N. gonorrhoeae WHO N = settings: microdilution in FB, ~5 × 10^4 CFU, 24 hr, 37°C, 5% CO2
Method: as §9, §10, §11, §1, §2, §3, §4, §5, §6, §7, §8

N. gonorrhoeae MS11ΔIgAP = settings: microdilution in FB, ~5 × 10^4 CFU, 24 hr, 37°C, 5% CO2
Method: as §9, §10, §11, §1, §2, §3, §4, §5, §6, §7, §8

N. gonorrhoeae MS11ΔmtrE = settings: microdilution in FB, ~5 × 10^4 CFU, 24 hr, 37°C, 5% CO2
Method: as §9, §10, §11, §1, §2, §3, §4, §5, §6, §7, §8

N. gonorrhoeae FA1090 [5] = settings: microdilution in FB, ~5 × 10^4 CFU, 24 hr, 37°C, 5% CO2
Method: as §9, §10, §11, §1, §2, §3, §4, §5, §6, §7, §8

human erythrocytes = experiment: Hemolysis of human erythrocytes; format: cell-based; settings: concentration of peptide or ADC that lyses 50% of erythrocytes; washed human blood 0.5%, 37°C, 1 hr, OD415; melittin 2.5 µM = 100%, PBS = 0%; n = 3
Method: For hemolysis, whole human blood (1 ml; K2EDTA; Cambridge Bioscience) was washed in PBS then 0.5% added to an equal volume of peptides or ADCs in 96-well V-bottomed polypropylene plates and incubated at 37°C for 1 hr. Cells were pelleted at 1,000 × g for 10 min and the absorbance at OD415 measured. Positive (melittin, 2.5 µM, Merck Life Science) and negative (PBS) controls were normalised as 100 and 0% hemolysis, respectively. […]

HK-2 cells [6] = experiment: LDH release cytotoxicity; format: cell-based, human; settings: n = 3; for LDH (EC50) 4 h: 2 × 10^4 cells/well, LDH release OD490, 4 h
Method: HK-2 cells (CRL-2190™, Americab Type Culutre Collection (ATCC)), a proximal renal tubule cell(7), and End1/E6E7 (CRL-2615™, ATCC) upper cervical epithelial cells(8) were cultured in Keratinocyte Serum Free Medium (Invitrogen, Life Technologies Ltd.) with human recombinant EGF (5 ng ml-1) and bovine pituitary extract (0.05 mg ml−1) at 37°C in 5% CO2. Cells were seeded in 96-well plates (Corning, Polystyrene) at a density of 2 × 10^4 cells/well 24 hr prior; Triton-X-100 (0.1%) and Digitonin (30 μg ml−1) were used as controls. Lactate dehydrogenase (LDH) release was measured using the Biovision kit; the OD490 was assessed in a SpectraMax M5 plate reader. […]

N. gonorrhoeae FA1090 [7] = experiment: microbe, parasite or virus in culture; settings: Neisseria gonorrhoeae
Method: 37°C, in 5% CO2 then 10 μl aliquots plated onto GCB agar. The MIC was defined as the lowest concentration of an antimicrobial that prevented bacterial growth.
Determination of N. gonorrhoeae resistance to Oct-TriA1
Single colonies of N. gonorrhoeae FA1090 were inoculated into 2 mL of FB media supplemented with 1% Vitox (Oxoid) and grown overnight. After 24 hours, 240 µl of a 1/ 5,000 dilution of FA1090 in 2x FB was added to a 48-well plate containing 2-fold dilutions of either Oct-TriA1-c (final concentration, 12.5 µg/ml to 0.2 µg/ml) or ciprofloxacin (final concentration, 16.4 to 0.001 µg/ml) in a total volume of 480
µl. Plates were incubated at 37 °C, 5% CO2 with shaking (180 rpm). After 24 hours, ODA600 of each well […]
to fresh media containing all concentrations of antimicrobials for a total of 35 days. […]

With CCCCCCCC(=O)N[C@@H](C(=O)N[C@H](CCN)C(=O)NCC(=O)N[C@H](CO)C(=O)N[C@H](Cc1c[nH]c2ccccc12)C(=O)N[C@@H](CO)C(=O)N[C@@H](CCN)C(=O)N[C@H](CCN)C(=O)N[C@@H](Cc1ccccc1)C(=O)N[C@@H](CCC(=O)O)C(=O)N[C@H](C(=O)N[C@@H](C(=O)N[C@@H](C)C(=O)O)[C@@H](C)CC)C(C)C)C(C)C [Oct-TriA1, reference compound] the “MTT (EC50) 4 h” value (HK-2 cells [1]) was 21.15 µg/mL, the “MTT (EC50) 24 h” value (HK-2 cells [1]; MTT reduction OD570, 24 h) was 7.93 µg/mL and the “MTT (EC50) 48 h” value (HK-2 cells [1]; MTT reduction OD570, 48 h) was 8.07 µg/mL. For the same compound, the MIC [2] was 0.2 µg/mL (≈ 0.132 µM), the MIC ([2]; listed as Oct-Tri1) was 0.78 µg/mL (≈ 0.513 µM) and the MIC (N. gonorrhoeae WHO M) was 0.39 µg/mL (≈ 0.256 µM). The MIC [3] was 0.1 µg/mL (≈ 0.0658 µM), the MIC (N. gonorrhoeae WHO P) was 0.39 µg/mL (≈ 0.256 µM) and the MIC (N. gonorrhoeae WHO L) was 0.2 µg/mL (≈ 0.132 µM). The MIC [4] was 0.1 µg/mL (≈ 0.0658 µM), the MIC (N. gonorrhoeae WHO K) was 0.78 µg/mL (≈ 0.513 µM) and the MIC (N. gonorrhoeae WHO G) was 0.39 µg/mL (≈ 0.256 µM). It also gave an MIC (N. gonorrhoeae WHO F) of 0.2 µg/mL (≈ 0.132 µM), an MIC (N. gonorrhoeae MS11) of 0.78 µg/mL (≈ 0.513 µM) and an MIC (N. gonorrhoeae WHO O) of 0.39 µg/mL (≈ 0.256 µM). It also gave an MIC (N. gonorrhoeae WHO N) of 0.39 µg/mL (≈ 0.256 µM), an MIC (N. gonorrhoeae MS11ΔIgAP) of 0.39 µg/mL (≈ 0.256 µM) and an MIC (N. gonorrhoeae MS11ΔmtrE) of 0.2 µg/mL (≈ 0.132 µM). For the same compound, the MIC (N. gonorrhoeae FA1090 [5]) was 0.2 µg/mL (≈ 0.132 µM), the “Hemolysis (HC50)” value (human erythrocytes) was 39.4 µg/mL and the “LDH (EC50) 4 h” value (HK-2 cells [6]) was 23.19 µg/mL. The “LDH (EC50) 24 h” value (HK-2 cells [6]; LDH release OD490, 24 h) was 14.14 µg/mL and the “LDH (EC50) 48 h” value (HK-2 cells [6]; LDH release OD490, 48 h) was <0.1 µg/mL.

For O=C(O)c1cn(C2CC2)c2cc(N3CCNCC3)c(F)cc2c1=O [ciprofloxacin, reference compound], the MIC (N. gonorrhoeae FA1090 [7]; FA1090, 24 h, read-out: MIC at start of resistance evolution) was 0.002 µg/mL (≈ 0.00604 µM) and the MIC (N. gonorrhoeae FA1090 [7]; FA1090, read-out: MIC after 35 d of resistance evolution) was 0.26 µg/mL (≈ 0.785 µM).

In the case of CCCCCCCC(=O)N[C@@H](C(=O)N[C@H](CCN)C(=O)NCC(=O)N[C@H](CO)C(=O)N[C@H](Cc1c[nH]c2ccccc12)C(=O)N[C@@H](CO)C(=O)N[C@@H](CCN)C(=O)N[C@H](CCN)C(=O)N[C@@H](Cc1ccccc1)C(=O)N[C@@H](CCC(=O)O)C(=O)N[C@H](C(=O)N[C@@H](C(=O)N[C@@H](C)C(=O)NCCOCCOCC(=O)N[C@@H](CC(C)C)C(=O)N1CCC[C@H]1C(=O)N[C@@H](CCCNC(=N)N)C(=O)N1CCC[C@H]1C(=O)N1CCC[C@H]1C(=O)N[C@@H](C)C(=O)N1CCC[C@H]1C(=O)N[C@H](C(=O)N[C@@H](Cc1ccccc1)C(=O)N[C@@H](CO)C(=O)NCCOCCOCC(=O)N[C@@H](CS)C(N)=O)C(C)C)[C@@H](C)CC)C(C)C)C(C)C [cl-Oct-TriA1] (Octanoyl-[dV][dDab]G[dS][dW]S[Dab][dDab]FEV[d(aIle)]A[AEEA]LPRPPAPVFS[AEEA]C-NH2), the “MTT (EC50) 4 h” value (HK-2 cells [1]) is reported as 315.43 µg/mL and the “LDH (EC50) 4 h” value (HK-2 cells [6]) is reported as >400 µg/mL.
